The record followed here is US9884874B2, “Bromodomain-inhibiting compounds and pharmaceutical composition comprising same for preventing or treating a cancer” (KAINOS MEDICINE, INC., priority 2014, dated 2018).

Series [1] in a line: Mouse liver microsomal stability/clearance. Type of series: in vitro ADME. Here is the method: (§1) Human and mouse liver microsomal clearance assays were carried out in CROWN Biosciences (Taicang, China). The human liver microsomes (Cat No. X008067, Lot No. KQB) and mouse liver microsomes (Cat No. M1000, Lot No. 1210302) were purchased from Celsis and Xenotech, respectively.
(§2) 5 μL of test compound stock solution was diluted with 495 μL of 1:1 Methanol/Water (final concentration: 100 μM, 50% MeOH) and combined with 534 μL of the respective liver microsome solution (final concentration: 1.111 μM, 0.555% MeOH). The final concentration of the liver microsome solution was 0.7 mg protein/mL.
(§3) Incubations of the liver microsome solutions were performed in a 96 well plate at 37° C. 90 μL of the liver microsome solutions were added to Blank, and 90 μL of working solution of the test compound was added to all plates except the Blank.
(§4) All plates thus obtained were warmed in water bath at 37° C. for 10 min, and 10 μL of NADPH co-factor solution comprising 42 mg of β-nicotinamide adenine dinucleotide phosphate (Sigma Cat. No. N0505 Lot 020M7009V), 84 mg of isocitric acid (Sigma Cat. No. 11252 Lot 119K1099) and 0.478 mL of isocitric dehydrogenase (Sigma Cat. No. 12002 Lot 086K7055, 15 units/mg protein, warmed in water bath at 37° C. for 5 min was added to the plates. The resulting plates were incubated at 37° C. in the following order: T60 (The test compounds were incubated with the liver microsomal solution and NADPH for 60 min at 37° C.), T30 (such as for 30 min.), and T10 (such as for 10 min.). 300 μL of a cold (4° C.) stop solution (acetonitrile (ACN) including 500 nM of tolbutamide as internal standard) and 10 μL of NADPH co-factor solution to starting plate (T0: 100% of the parent compound without any reaction) were added to the plates. The reaction was stopped by adding 300 μL of the cold (4° C.) stop solution to the other plates in the following order: T10 first, then T30 and T60.
(§5) The samples were centrifuged at 4,000 rpm for 20 min and transferred to Bioanalytical Services for liquid chromatography-mass spectrometry (LC-MS)/MS (Waters UPLC/API 4000, 10 μL injection) analysis.
A general note: Microsomes from liver hold many membrane-bound enzymes, among them those of drug oxidation.

Series [2] can be described thus: Human liver microsomal stability/clearance. Format: in vitro ADME. The method, then:
as §1, §2, §3, §4, §5

A further series concerns the target human BRD4 bromodomain 1 (Homo sapiens (Human), UniProt O60885). Nature of the series: Bromodomain binding assay (BRD4 Alpha-screen). The following applies: acetylated histone H4 peptide. The method, then: Bromodomain binding assays were carried out in Reaction Biology (PA, USA) to test the degrees of the inventive compounds in inhibiting the human BRD4 bromodomain 1 by Alpha-screen assay method.
Recombinant human BRD4 bromodomain 1 expressed in E. coli with N-terminal His-tag was used as the enzyme target.
A synthetic peptide ([…]-GSGSK-biotin) containing 1 to 21th amino acids of histone H4 acetylated at lysine 5, 8, 12 and 16 and conjugated to biotin was purchased from Millipore.
BRD4-1 (44 to 170th amino acids; Genbank Accession # NM_058243) was expressed in E. coli with N-terminal His-tag (see, Ni-NTA spin Kit Handbook (Qiagen), second edition, January, 2008). Nickel-Chelate ALPHA acceptor beads (Perkin Elmer) were used to specifically bind BRD4-1, and ALPHA streptavidin donor beads (Perkin Elmer) were used because they specifically recognized the biotinylated H4 peptide.
BRD binding assays were performed in a mixture comprising 50 mM Hepes (pH7.5), 100 mM NaCl, 0.05% CHAPS, 0.1% BSA, and 1% DMSO. After an assay reaction time of 60 min at 25° C., binding was measured with streptavidin donor beads and nickel-chelate acceptor beads. ALPHA signal was detected on Enspire (Ex/Em=680/520-620 nm). IC50 values were calculated from the fit of the dose-response curves. All IC50 values represent geometric mean values of a minimum of four determinations. These assays generally produced results within 3-fold of the reported mean.
(Alpha assays give light when donor and acceptor beads are brought close together.)

The test system of series [3] is LnCAP (human prostatic adenocarcinoma cell line). Nature of the series: Anti-proliferative activity test (CellTiter-Glo), LnCAP. Format: cell-based. The following applies: first value of LnCAP/MV4-11 cell, read-out: Cell proliferation IC50 (LnCAP). The method, then: (§6) IC50 (uM) of the compounds obtained in Examples 1 to 18 against hematological cancer cells and solid tumors was measured for identifying anti-proliferative activities.
(§7) A human prostatic adenocarcinoma cell line, LnCAP (ATCC®, CRL-1740) and human leukemia cell line MV4-11 (ATCC®, CRL-9591) were used to test the degrees of the compounds 1 to 18 in inhibiting the cancer cell growth. The testing cell concentration was adjusted to 6.7×10^3 cells/ml with a culture medium supplemented with 10% FBS, in the temperature of 37° C., 5% CO2 and 95% humidity. Culture media and FBS were purchased from GIBCO. 90 μL of cell suspensions thus obtained was added to two 96-well plates with the final cell density of 600 cells/well, followed by addition of 10 μL of culture medium to each well of plate. The plates were incubated overnight in a humidified incubator at 37° C. with 5% CO2.
(§8) Compounds 1 to 18 were each dissolved with dimethylsulfoxide (DMSO) or phosphate buffer solution (PBS) as a stock solution, and 200× solutions of test compound (2 mM) using DMSO were prepared. Then, the DMSO solution thus obtained was diluted 20-fold with culture medium or PBS to obtain 10× working solution. 10 μL of 10× working solution (drug solution) was dispensed to each well (triplicate for each concentration). The final concentration of DMSO in culture medium was 0.5% [v/v].
(§9) Cell viability was determined using CellTiter-Glo® (CTG) assay. 100 μL of CellTiter-Glo® was added to the equal volume of the cultured cells to read luminescence in EnVision Multi Label Reader.
A general note: ATP-based viability assays read luminescence as a measure of living cells.

Series [4] concerns MV4-11 (human leukemia cell line). The series can be described thus: Anti-proliferative activity test (CellTiter-Glo), MV4-11. Format: cell-based. The following applies: second value of LnCAP/MV4-11 cell, read-out: Cell proliferation IC50 (MV4-11). Here is the method:
as §6, §7, §8, §9

Where [5] appears, read: mouse liver microsomes, second value of Human/Mouse cell, read-out: Liver microsomal clearance (Mouse).
The mark [6] stands for this setting: human liver microsomes, first value of Human/Mouse cell, read-out: Liver microsomal clearance (Human).

For `Cc1nnc2n1-c1ccc(C(=O)NCCO)cc1C(c1ccc(Cl)cc1)=N[C@H]2COS(C)(=O)=O` [Compound 14, (R)-(6-(4-chlorophenyl)-8-((2-hydroxyethyl)carbamoyl)-1-methyl-4H-benzo[f][1,2,4]triazolo[4,3-a][1,4]diazepin-4-yl)methyl methanesulfonate], the microsomal CLint at 1 µM turned out to be 6.3 µL/min/mg in series [1] (setting [5]) and 8.3 µL/min/mg in series [2] (setting [6]). The IC50 at human BRD4 bromodomain 1 is 380 nM.
For `Cc1nnc2n1-c1ccc(-c3cnn(CC(=O)N(C)C)c3)cc1C(c1ccc(Cl)cc1)=N[C@H]2COS(C)(=O)=O` [Compound 13, (R)-(6-(4-chlorophenyl)-8-(1-(2-(dimethylamino)-2-oxoethyl)-1H-pyrazol-4-yl)-1-methyl-4H-benzo[f][1,2,4]triazolo[4,3-a][1,4]diazepin-4-yl)methyl methanesulfonate], the microsomal CLint at 1 µM in series [1] (setting [5]) is 7.4 µL/min/mg; in series [2] (setting [6]), 12.3 µL/min/mg. For the same compound, the IC50 in series [3] amounted to 430 nM; in series [4], 290 nM; on human BRD4 bromodomain 1, 110 nM.
`COc1ccc2c(c1)C(c1ccc(Cl)cc1)=N[C@@H](COS(=O)(=O)C1CC1)c1nnc(C)n1-2` [Compound 4, (R)-(6-(4-chlorophenyl)-8-methoxy-1-methyl-4H-benzo[f][1,2,4]triazolo[4,3-a][1,4]diazepin-4-yl)methyl cyclopropanesulfonate]: the microsomal CLint at 1 µM was found to be 8.9 µL/min/mg in series [1] (setting [5]) and 6.3 µL/min/mg in series [2] (setting [6]). The IC50 was 130 nM in series [3], 690 nM in series [4] and 420 nM on human BRD4 bromodomain 1.
Regarding `Cc1sc2c(c1C)C(c1ccc(Cl)cc1)=N[C@@H](COS(N)(=O)=O)c1nnc(C)n1-2` [Compound 16, (R)-(4-(4-chlorophenyl)-2,3,9-trimethyl-6H-thieno[3,2-f][1,2,4]triazolo[4,3-a][1,4]diazepin-6-yl)methyl sulfamate], the microsomal CLint at 1 µM in series [1] (mouse, microsomes) came out at 9 µL/min/mg; in series [2] (human, microsomes), 10 µL/min/mg. The compound further showed an IC50 on human BRD4 bromodomain 1 of 250 nM.
As to `Cc1sc2c(c1C)C(c1ccc(Cl)cc1)=N[C@@H](COS(=O)(=O)N(C)C)c1nnc(C)n1-2` [Compound 17, (R)-(4-(4-chlorophenyl)-2,3,9-trimethyl-6H-thieno[3,2-f][1,2,4]triazolo[4,3-a][1,4]diazepin-6-yl)methyl dimethylsulfamate], the microsomal CLint at 1 µM is 138 µL/min/mg in series [1] (mouse, microsomes) and 171 µL/min/mg in series [2] (human, microsomes). Besides, the IC50 on human BRD4 bromodomain 1 was determined as 900 nM.
On to `COc1ccc2c(c1)C(c1ccc(Cl)cc1)=N[C@@H](COS(=O)(=O)N(C)C)c1nnc(C)n1-2` [Compound 9, (R)-(6-(4-chlorophenyl)-8-methoxy-1-methyl-4H-benzo[f][1,2,4]triazolo[4,3-a][1,4]diazepin-4-yl)methyl dimethylsulfamate], for which the figures for the microsomal CLint at 1 µM in series [1] (setting [5]) and in series [2] (setting [6]) were 86 µL/min/mg and 126 µL/min/mg, respectively. The values for the IC50 (in series [3]; in series [4]; on human BRD4 bromodomain 1) were 1900 nM, 1490 nM and 280 nM, respectively.
The compound `Cc1nnc2n1-c1ccccc1C(c1ccc(Cl)cc1)=N[C@H]2COS(C)(=O)=O` [Compound 6, (R)-(6-(4-chlorophenyl)-1-methyl-4H-benzo[f][1,2,4]triazolo[4,3-a][1,4]diazepin-4-yl)methyl methanesulfonate] had an IC50 on human BRD4 bromodomain 1 of 1410 nM.
Consider `CNS(=O)(=O)OC[C@@H]1N=C(c2ccc(Cl)cc2)c2c(sc(C)c2C)-n2c(C)nnc21` [Compound 18, (R)-(4-(4-chlorophenyl)-2,3,9-trimethyl-6H-thieno[3,2-f][1,2,4]triazolo[4,3-a][1,4]diazepin-6-yl)methyl methylsulfamate], for which the microsomal CLint at 1 µM in series [1] (mouse, microsomes) worked out at 49 µL/min/mg; in series [2] (human, microsomes), 51 µL/min/mg. Also, at human BRD4 bromodomain 1, the IC50 was 160 nM.
As to `Cc1nnc2n1-c1ccc(-c3cnn(CC(N)=O)c3)cc1C(c1ccc(Cl)cc1)=N[C@H]2COS(C)(=O)=O` [Compound 12, (R)-(8-(1-(2-amino-2-oxoethyl)-1H-pyrazol-4-yl)-6-(4-chlorophenyl)-1-methyl-4H-benzo[f][1,2,4]triazolo[4,3-a][1,4]diazepin-4-yl)methyl methanesulfonate], the values for the microsomal CLint at 1 µM in series [1] (setting [5]) and in series [2] (setting [6]) were 6.9 µL/min/mg and 5.6 µL/min/mg, respectively. The IC50 in series [3] was 44000 nM; in series [4] it was 1070 nM; on human BRD4 bromodomain 1 it was 110 nM.
Regarding `CCCS(=O)(=O)OC[C@@H]1N=C(c2ccc(Cl)cc2)c2cc(OC)ccc2-n2c(C)nnc21` [Compound 3, (R)-(6-(4-chlorophenyl)-8-methoxy-1-methyl-4H-benzo[f][1,2,4]triazolo[4,3-a][1,4]diazepin-4-yl)methyl propane-1-sulfonate], the values for the microsomal CLint at 1 µM in series [1] (setting [5]) and in series [2] (setting [6]) were 39.7 µL/min/mg and 71.3 µL/min/mg, respectively. The IC50 is 830 nM in series [3], 1810 nM in series [4] and 390 nM on human BRD4 bromodomain 1.
Compound `COc1ccc2c(c1)C(c1ccc(Cl)cc1)=N[C@@H](COS(=O)(=O)c1ccccc1)c1nnc(C)n1-2` [Compound 5, (R)-(6-(4-chlorophenyl)-8-methoxy-1-methyl-4H-benzo[f][1,2,4]triazolo[4,3-a][1,4]diazepin-4-yl)methyl benzenesulfonate] had an IC50 on human BRD4 bromodomain 1 of 900 nM.
For the compound `CNS(=O)(=O)OC[C@@H]1N=C(c2ccc(Cl)cc2)c2cc(OC)ccc2-n2c(C)nnc21` [Compound 10, (R)-(6-(4-chlorophenyl)-8-methoxy-1-methyl-4H-benzo[f][1,2,4]triazolo[4,3-a][1,4]diazepin-4-yl)methyl methylsulfamate], the microsomal CLint at 1 µM in series [1] (setting [5]) was 21 µL/min/mg; in series [2] (setting [6]), 29 µL/min/mg. Moreover, the IC50 in series [3] stood at 570 nM; in series [4], 350 nM; on human BRD4 bromodomain 1, 400 nM.
